The source of these data is PMC6155021, “Ancient and modern anticonvulsants act synergistically in a KCNQ potassium channel binding pocket” (Nature Communications, 2018).

Details of series [1]: method as in PMID 24781306. The note with it: cited from earlier work.
The target of the next series is KCNQ2/3 channels (Homo sapiens, UniProt O43525+O43526). Description: Two-electrode voltage-clamp of KCNQ2/3 channels expressed in Xenopus laevis oocytes. The format is cell-based. The text has this:
(§1) cRNA transcripts encoding human KCNA1, KCNQ1, KCNQ2, KCNQ3, KCNQ4, or KCNQ5 were generated by in vitro transcription using the T7 polymerase message machine kit (Thermo Fisher Scientific), after vector linearization, from cDNA sub-cloned into plasmids incorporating X. laevis β-globin 5′ and 3′ UTRs flanking the coding region to enhance translation and cRNA stability. cRNA was quantified by spectrophotometry. Mutant cDNAs were generated by site-directed mutagenesis using a QuikChange kit according to manufacturer’s protocol (Stratagene, San Diego, CA) and corresponding cRNAs prepared as above. Defolliculated stage V and VI X. laevis oocytes (Ecocyte Bioscience, Austin, TX) were injected with Kv channel α subunit cRNAs (10 ng total per oocyte). Oocytes were incubated at 16 °C in Barth’s saline solution (Ecocyte) containing penicillin and streptomycin, with daily washing, for 3–5 days prior to two-electrode voltage-clamp (TEVC) recording.
(§2) Oocytes were placed in a small-volume oocyte bath (Warner) and viewed with a dissection microscope. Chemicals were sourced from Sigma. Bath solution was (in mM): 96 NaCl, 4 KCl, 1 MgCl2, 1 CaCl2, 10 HEPES (pH 7.6). […] MTX (DMSO), sorbic acid (ethanol), and glutaconic acid (molecular grade H2O) were stored at −20 °C as 1 M stocks. Oleamide was stored as a 1 mM stock in ethanol at 4 °C. Palmitic acid was conjugated with bovine serum albumin as a 1 mM stock and stored at −20 °C. All compounds were diluted to working concentrations each experimental day. All compounds were introduced to the recording bath via gravity perfusion at a constant flow of 1 ml/min for 3 min prior to recording. Pipettes were of 1–2 MΩ resistance when filled with 3 M KCl. Currents were recorded in response to pulses between −80 and +40 mV at 20 mV intervals, or a single pulse to +40 mV, from a holding potential of −80 mV, to yield current–voltage relationships, current magnitude, and for quantifying activation rate. TEVC data analysis was performed with Clampfit10.2 (Molecular Devices) and Graphpad Prism software (GraphPad, San Diego, CA, USA); values are stated as mean ± SEM. Normalized tail currents were plotted versus prepulse voltage and fitted with a single Boltzmann function:1 g=A1-A2/1+expV12-Vy+A2, where g is the normalized tail conductance, A1 is the initial value at −∞, A2 is the final value at +∞, V1/2 is the half-maximal voltage of activation, and Vs the slope factor. Activation and deactivation kinetics were fitted with single-exponential functions.

The target of series [2] is T1, KCNQ2 (Homo sapiens, UniProt O43526). Description: Two-electrode voltage-clamp of homomeric KCNQ2 in Xenopus oocytes. The format is cell-based. The note with it: KCNQ2; 1 µM.
Excerpt: as §1, §2
For orientation: In two-electrode clamp one electrode senses voltage and the other passes current.

The next series addresses KCNQ3* (KCNQ3-A315T) (Homo sapiens, UniProt O43525, A315T). Description: cell-based. In kind it is cell-based. The settings on record: KCNQ3*; 1 µM.
Excerpt: as §1, §2

A further series concerns the target KCNQ4 (Homo sapiens, UniProt P56696). Briefly: cell-based. In kind it is cell-based. The settings on record: KCNQ4; 1 µM.
Excerpt: as §1, §2

A further series concerns the target KCNQ5 (Homo sapiens, UniProt Q9NR82). Description: cell-based. The format is cell-based. The note with it: KCNQ5; 1 µM.
Excerpt: as §1, §2

The target of series [3] is T1, KCNQ2. Set-up: method as in PMID 11466425. The note with it: 10 µM RTG; cited from earlier work.
The test system of the next series is KCNQ2–5. The note with it: cited from earlier work.

Sequence of KCNQ3* (KCNQ3-A315T) (O43525 whole entry A315T, looked up): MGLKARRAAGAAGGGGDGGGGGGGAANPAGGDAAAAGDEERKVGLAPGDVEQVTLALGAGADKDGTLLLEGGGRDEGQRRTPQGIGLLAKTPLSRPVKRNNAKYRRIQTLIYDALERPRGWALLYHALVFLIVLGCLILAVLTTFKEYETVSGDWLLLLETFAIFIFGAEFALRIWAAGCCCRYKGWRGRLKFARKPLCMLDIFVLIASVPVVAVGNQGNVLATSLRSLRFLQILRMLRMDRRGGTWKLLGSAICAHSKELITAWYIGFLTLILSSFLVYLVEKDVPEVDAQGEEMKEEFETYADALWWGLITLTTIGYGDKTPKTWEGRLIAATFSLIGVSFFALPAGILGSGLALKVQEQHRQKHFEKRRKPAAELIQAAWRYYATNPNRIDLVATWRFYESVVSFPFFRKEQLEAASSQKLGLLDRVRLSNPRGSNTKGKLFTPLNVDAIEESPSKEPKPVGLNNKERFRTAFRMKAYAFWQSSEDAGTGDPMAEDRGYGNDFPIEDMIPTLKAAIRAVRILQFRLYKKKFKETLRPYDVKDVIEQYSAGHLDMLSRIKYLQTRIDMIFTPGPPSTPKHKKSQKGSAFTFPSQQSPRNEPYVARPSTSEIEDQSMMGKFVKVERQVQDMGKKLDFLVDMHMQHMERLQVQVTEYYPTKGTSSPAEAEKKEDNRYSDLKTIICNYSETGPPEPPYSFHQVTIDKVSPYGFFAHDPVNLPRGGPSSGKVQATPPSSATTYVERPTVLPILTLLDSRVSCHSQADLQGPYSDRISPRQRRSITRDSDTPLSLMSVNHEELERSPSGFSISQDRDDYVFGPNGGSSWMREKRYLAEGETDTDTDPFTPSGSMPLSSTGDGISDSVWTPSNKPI

For the compound `CC(=O)O` [acetate], the “crossing of the blood brain barrier” value in series [1] was “readily cross the blood brain barrier”.

As to `CCOC(=O)Nc1ccc(NCc2ccc(F)cc2)cc1N` [Retigabine, retigabine, reference compound], at KCNQ2/3 channels (1 µM alone), the “effects on KCNQ2/3” value is “negligible effects”. For the same compound, the “Non-normalized tail current V0.5” value is recorded as -41.7 ± 2.3 mV at KCNQ2/3 channels (KCNQ2/3, 1 µM); -61.8 ± 4.8 mV at KCNQ2/3 channels (KCNQ2/3, 10 µM); -51.6 ± 6.6 mV at KCNQ2 [2]; -63.9 ± 7.7 mV at KCNQ3* (KCNQ3-A315T); -10.2 ± 7.5 mV on KCNQ4; -45.8 ± 2.8 mV at KCNQ5. The “Normalized tail current V0.5” value was -41.9 ± 0.7 mV on KCNQ2/3 channels (KCNQ2/3, 1 µM); -61.4 ± 1.1 mV on KCNQ2/3 channels (KCNQ2/3, 10 µM); -51.7 ± 0.7 mV at KCNQ2 [2]; -61.9 ± 2.2 mV on KCNQ3* (KCNQ3-A315T); -9.7 ± 1.1 mV on KCNQ4; -46.0 ± 0.9 mV on KCNQ5. This compound had a Slope on KCNQ2/3 channels (KCNQ2/3, 10 µM) of 6.7 ± 1.1 mV. Besides, the “shift of KCNQ2/3 activation V0.5” value on KCNQ2/3 channels (RTG 10 µM) is −13 mV. Further, the “shift in midpoint voltage of activation” value on KCNQ2 [3] is reported as −24 mV. The “order of potency across KCNQ isoforms” value with KCNQ2–5 is given as “KCNQ3 > KCNQ2/3 > KCNQ2 > KCNQ4 > KCNQ5”.
